Test results taken from patent US9334269B2, “Carboxamides as inhibitors of voltage-gated sodium channels” (AMGEN INC., priority 2010, dated 2016).

Each compound was assayed against T1, human Nav1.7 (hNav1.7) (Homo sapiens, UniProt Q15858) (assay: hNav1.7 whole-cell patch-clamp electrophysiology (automated PatchXpress 7000A or manual) in stably expressing 293 cells). Details: average IC50.
T1 construct: expressed in transfected cells
Type: cell-based
In short: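 Stably transfected 293 cells lacking endogenous sodium channels; peak current evoked by depolarizing pulses during increasing compound concentrations, automated at ~20% fractional inactivation, or manually at −140 mV (resting) and ~20% inactivation. Block taken at steady state, corrected for rundown; IC50 by Hill fit.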

T1 sequence (Q15858 whole entry): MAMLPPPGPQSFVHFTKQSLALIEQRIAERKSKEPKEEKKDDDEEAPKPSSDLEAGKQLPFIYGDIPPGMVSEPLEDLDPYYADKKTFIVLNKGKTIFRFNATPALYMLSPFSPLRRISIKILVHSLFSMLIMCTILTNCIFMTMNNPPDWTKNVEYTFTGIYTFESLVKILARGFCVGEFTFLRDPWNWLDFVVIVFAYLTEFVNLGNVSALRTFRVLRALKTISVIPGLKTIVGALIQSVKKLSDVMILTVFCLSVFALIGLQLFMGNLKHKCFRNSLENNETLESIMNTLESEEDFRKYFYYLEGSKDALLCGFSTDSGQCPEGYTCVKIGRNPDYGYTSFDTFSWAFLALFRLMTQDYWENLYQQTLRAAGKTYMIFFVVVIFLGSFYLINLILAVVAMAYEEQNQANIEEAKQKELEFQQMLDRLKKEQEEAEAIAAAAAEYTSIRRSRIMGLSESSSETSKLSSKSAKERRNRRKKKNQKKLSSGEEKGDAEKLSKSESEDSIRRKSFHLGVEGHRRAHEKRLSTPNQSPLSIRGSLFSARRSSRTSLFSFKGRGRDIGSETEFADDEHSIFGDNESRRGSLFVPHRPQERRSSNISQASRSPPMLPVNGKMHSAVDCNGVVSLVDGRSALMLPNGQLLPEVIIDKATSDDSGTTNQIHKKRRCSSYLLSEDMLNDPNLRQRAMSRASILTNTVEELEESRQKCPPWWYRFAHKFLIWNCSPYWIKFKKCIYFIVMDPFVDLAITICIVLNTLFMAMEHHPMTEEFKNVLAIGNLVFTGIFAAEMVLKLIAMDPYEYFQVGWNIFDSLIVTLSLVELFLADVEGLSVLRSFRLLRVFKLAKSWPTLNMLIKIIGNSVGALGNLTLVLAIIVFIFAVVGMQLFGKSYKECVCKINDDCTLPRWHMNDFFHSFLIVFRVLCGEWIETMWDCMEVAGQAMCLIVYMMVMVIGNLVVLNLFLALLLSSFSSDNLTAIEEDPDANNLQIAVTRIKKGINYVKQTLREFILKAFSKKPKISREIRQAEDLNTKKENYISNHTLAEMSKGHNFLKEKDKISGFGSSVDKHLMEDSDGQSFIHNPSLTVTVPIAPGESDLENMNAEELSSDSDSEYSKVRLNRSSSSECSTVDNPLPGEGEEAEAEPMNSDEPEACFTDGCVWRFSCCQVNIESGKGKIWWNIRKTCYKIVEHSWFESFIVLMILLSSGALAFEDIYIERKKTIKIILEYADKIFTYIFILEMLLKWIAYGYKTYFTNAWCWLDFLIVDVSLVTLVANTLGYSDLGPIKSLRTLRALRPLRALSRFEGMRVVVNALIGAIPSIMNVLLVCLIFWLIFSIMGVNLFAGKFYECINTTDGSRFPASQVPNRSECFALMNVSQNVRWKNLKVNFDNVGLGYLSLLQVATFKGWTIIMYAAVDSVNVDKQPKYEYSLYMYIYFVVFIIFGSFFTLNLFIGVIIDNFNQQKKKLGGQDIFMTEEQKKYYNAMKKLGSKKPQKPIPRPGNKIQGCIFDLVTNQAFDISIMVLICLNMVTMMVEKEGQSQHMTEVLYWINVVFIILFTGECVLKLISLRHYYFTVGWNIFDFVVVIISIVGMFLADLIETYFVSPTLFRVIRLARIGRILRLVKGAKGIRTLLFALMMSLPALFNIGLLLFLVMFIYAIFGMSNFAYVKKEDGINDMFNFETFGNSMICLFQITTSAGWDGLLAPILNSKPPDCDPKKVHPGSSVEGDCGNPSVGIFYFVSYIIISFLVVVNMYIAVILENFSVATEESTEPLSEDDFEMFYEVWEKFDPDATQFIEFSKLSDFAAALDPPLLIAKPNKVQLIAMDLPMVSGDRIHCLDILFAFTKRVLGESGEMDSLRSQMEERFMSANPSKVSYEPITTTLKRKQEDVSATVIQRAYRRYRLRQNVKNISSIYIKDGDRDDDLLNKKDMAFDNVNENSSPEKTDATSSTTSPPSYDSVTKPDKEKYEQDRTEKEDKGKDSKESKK

| IC50 | SMILES |
| --- | --- |
| 22.1 µM | CNC(=O)c1cccc(Nc2ncnc(N3CC(Oc4c(F)cccc4F)C3)n2)c1 [Example 274] |
| > 30 µM | CNC(=O)c1cccc(Nc2ncnc(N3CCC(CCCc4ccccc4)CC3)n2)c1 [Example 294] |
| > 30 µM | CNC(=O)c1cccc(Nc2ncnc(NCCc3nc4cc(Cl)ccc4[nH]3)n2)c1 [Example 288] |
| > 30 µM | NC(=O)c1cc(Nc2ncnc(N3CC(Oc4ccc(F)cc4)C3)n2)ccc1F [Example 291] |
| 20.9 µM | Cc1c(Nc2ncnc(N3CCC(OCc4ccc(OC(F)(F)F)cc4)CC3)n2)cccc1C(N)=O [Example 267] |
| > 30 µM | CNC(=O)c1ccc(OC)c(Nc2ncnc(N3CC(Oc4ccc(Cl)cc4)C3)n2)c1 [Example 283] |
| > 30 µM | CNC(=O)c1cccc(Nc2ncnc(NCCc3nnc(-c4ccc(C)s4)o3)n2)c1 [Example 287] |
| 22.6 µM | CNC(=O)c1cccc(Nc2ncnc(N3CCc4cc(OCC(F)(F)F)ccc4C3)n2)c1C [Example 275] |
| 23.6 µM | CNC(=O)c1cccc(Nc2ncnc(N3CC(COc4ccccc4C(F)(F)F)C3)n2)c1 [Example 276] |

Same assay, conditions: average IC50, human Nav1.7

| IC50 | SMILES |
| --- | --- |
| 8.39 µM | CC(C)(C)NC(=O)c1cccc(Nc2ncnc(N3CC(Oc4ccc(F)cc4)C3)n2)c1 [Example 213] |
| 6.8 µM | CNC(=O)c1cccc(Nc2ccnc(N3CC(COc4ccc(Cl)cc4)C3)n2)c1 [Example 197] |
| 2.59 µM | CNC(=O)c1cccc(Nc2ncnc(N3CCC(c4ccc(OC(F)(F)F)cc4)CC3)n2)c1 [Example 135] |
| 9.84 µM | CNC(=O)c1cccc(Nc2ncnc(NCCCc3ccc(Cl)cc3)n2)c1 [Example 232] |
| 0.65 µM | CNC(=O)c1cc(Nc2ncnc(N3CC(Oc4ccc(Cl)cc4)C3)n2)ccc1N(C)C [Example 50] |
| 0.38 µM | CNC(=O)c1cccc(Nc2ncnc(N3CC(Oc4cccc(Cl)c4)C3)n2)c1 [Example 25] |
| 0.99 µM | C#Cc1cccc(OC2CN(c3ncnc(Nc4cccc(C(=O)NC)c4)n3)C2)c1 [Example 78] |
| 0.47 µM | CNC(=O)c1cccc(Nc2ncnc(N3CC(Oc4ccc(C(F)(F)F)cc4)C3)n2)c1 [Example 35] |
| 0.29 µM | CNC(=O)c1cccc(Nc2ncnc(N3CC(Oc4ccc(F)cc4C)C3)n2)c1 [Example 16] |
| 2.87 µM | CNC(=O)c1cccc(Nc2ncnc(N3CCc4c(cnn4-c4ccc(Cl)cc4)C3)n2)c1 [Example 144] |
| 9.19 µM | CNC(=O)c1cccc(Nc2ncnc(N3CC(COc4ccc(OC)cc4)C3)n2)c1 [Example 223] |
| 1.29 µM | CNC(=O)c1cccc(Nc2ncnc(N3CC(COc4ccc(Cl)c(F)c4)C3)n2)c1 [Example 91] |
| 0.63 µM | CNC(=O)c1cccc(Nc2ncnc(N3CC=C(c4csc(-c5ccccc5)n4)CC3)n2)c1 [Example 46] |
| 0.89 µM | CNC(=O)c1cc(Nc2ncnc(N3CC(COc4ccc(Cl)cc4)C3)n2)ccc1F [Example 70] |
| 3.34 µM | CNC(=O)c1cccc(Nc2ncnc(NCCCOc3ccc(OC(F)(F)F)cc3)n2)c1C [Example 156] |
| 7.03 µM | CNC(=O)c1cccc(Nc2ncnc(N3CC(COc4cccc(Cl)c4)C3)n2)c1 [Example 201] |
| 4.78 µM | CNC(=O)c1cccc(Nc2ncnc(N3CCN(c4ccccc4C(F)(F)F)CC3)n2)c1 [Example 178] |
| 3.03 µM | CNC(=O)c1cccc(Nc2ncnc(N3CCC(OCc4ccc(C(F)(F)F)cc4)CC3)n2)c1 [Example 150] |
| 0.5 µM | CNC(=O)c1cccc(Nc2ncnc(N3CC(Oc4ccc(Cl)c(Cl)c4)C3)n2)c1 [Example 39] |

| IC50 | SMILES |
| --- | --- |
| 0.39 µM | CNC(=O)c1cccc(Nc2ncnc(N3CCC(c4csc(-c5ccccc5)n4)CC3)n2)c1 [Example 26] |
| 0.43 µM | CNC(=O)c1cccc(Nc2nccc(N3CC(Oc4ccc(Cl)cc4)C3)n2)c1 [Example 30] |
| 3.67 µM | CNC(=O)c1c(F)ccc(Nc2ncnc(N3CC(COc4ccc(Cl)cc4)C3)n2)c1F [Example 161] |
| 2.79 µM | CNC(=O)c1cccc(Nc2ncnc(N3CCC(c4nc(-c5ccccc5)no4)CC3)n2)c1 [Example 140] |
| 0.72 µM | CNC(=O)c1cccc(Nc2ncnc(N3CC(Oc4ccc(F)cc4Cl)C3)n2)c1 [Example 54] |
| 2.31 µM | CCn1c2c(c3ccccc31)CN(c1ncnc(Nc3cccc(C(=O)NC)c3)n1)CC2 [Example 127] |
| 0.49 µM | CNC(=O)c1cc(F)cc(Nc2ncnc(N3CC(Oc4ccc(Cl)cc4)C3)n2)c1 [Example 37] |
| 0.87 µM | CNC(=O)c1cccc(Nc2ncnc(N3CCN(c4cccc(Cl)c4)CC3)n2)c1 [Example 69] |
| 5.79 µM | CNC(=O)c1cccc(Nc2ncnc(N3CCC(Oc4ccc(F)c(OC(F)(F)F)c4)CC3)n2)c1 [Example 193] |
| 4.45 µM | CNC(=O)c1cccc(Nc2ncnc(N3CCN(c4ccccc4OC(F)(F)F)CC3)n2)c1 [Example 172] |
| 1.06 µM | CNC(=O)c1cccc(Nc2ncnc(N3CC(Oc4ccc(SC(F)(F)F)cc4)C3)n2)c1 [Example 83] |
| 1.58 µM | CNC(=O)c1cccc(Nc2ncnc(N3CC(COc4ccc(Cl)cc4F)C3)n2)c1 [Example 105] |
| 1.63 µM | CNC(=O)c1cccc(Nc2ncnc(N3CCN(CCc4ccccc4)CC3)n2)c1 [Example 109] |
| 4.25 µM | CNC(=O)c1cccc(Nc2ncnc(NCCCOc3ccc(C(F)(F)F)cc3)n2)c1 [Example 169] |
| 1.67 µM | CNC(=O)c1cccc(Nc2ncnc(N3CCc4cc(OC(F)(F)F)ccc4C3)n2)c1 [Example 110] |
| 2.1 µM | CNC(=O)c1cccc(Nc2ncnc(N3CCC(Oc4cccc(Cl)c4)CC3)n2)c1 [Example 122] |
| 0.65 µM | CNC(=O)c1cccc(Nc2ncnc(N3CC(Oc4cccc(C)c4)C3)n2)c1 [Example 49] |
| 2.13 µM | CNC(=O)c1cccc(Nc2ncnc(N3CCc4c(cccc4OC(F)(F)F)C3)n2)c1 [Example 123] |
| 4.84 µM | CNC(=O)c1cccc(Nc2cc(N3CC(Oc4ccc(F)cc4)C3)ccn2)c1 [Example 179] |

| IC50 | SMILES |
| --- | --- |
| 9.5 µM | CNC(=O)c1cccc(Nc2ncnc(N3CCC(Cc4ccccc4)CC3)n2)c1 [Example 230] |
| 13.8 µM | CNC(=O)c1cccc(Nc2ncnc(N3CC(COc4ccccc4F)C3)n2)c1 [Example 251] |
| 12.9 µM | CNC(=O)c1cccc(Nc2ncnc(N3CCC(c4ccc(C#N)c(OC(F)(F)F)c4)CC3)n2)c1 [Example 248] |
| 0.66 µM | CNC(=O)c1cccc(Nc2ncnc(N3CC=C(c4nc(-c5ccccc5)cs4)CC3)n2)c1 [Example 52] |
| 1.24 µM | CNC(=O)c1cccc(Nc2ncnc(N3CCC(C(=O)c4ccccc4)CC3)n2)c1 [Example 88] |
| 16.9 µM | CNC(=O)c1cccc(Nc2ncnc(N3CC(COc4ccc(C#N)cc4)C3)n2)c1 [Example 258] |
| 5.19 µM | CNC(=O)c1c(F)ccc(Nc2ncnc(N3CC(Oc4ccc(Cl)cc4)C3)n2)c1F [Example 183] |
| 5.58 µM | CNC(=O)c1cccc(Nc2ncnc(N3CCC(n4cc(-c5ccccc5Cl)cn4)CC3)n2)c1 [Example 190] |
| 3.5 µM | CNC(=O)c1cccc(Nc2ncnc(N3CC(COc4ccc(Cl)c(Cl)c4)C3)n2)c1 [Example 158] |
| 0.5 µM | CNC(=O)c1cccc(Nc2ncnc(N3CC(COc4ccc(Cl)cc4)C3)n2)c1 [Example 40] |
| 0.64 µM | COCCNC(=O)c1cccc(Nc2ncnc(N3CC(COc4ccc(Cl)cc4)C3)n2)c1 [Example 47] |
| 0.42 µM | CNC(=O)c1cccc(Nc2ncnc(N3CC(Oc4ccccc4Cl)C3)n2)c1 [Example 29] |
| 1.08 µM | CNC(=O)c1cccc(Nc2ncnc(N3CCC(Oc4ccc(Cl)c(F)c4)CC3)n2)c1 [Example 84] |
| 5.23 µM | CNC(=O)c1cccc(Nc2ncnc(N3CC(c4ccc(Cl)cc4)C3)n2)c1 [Example 184] |
| 2.55 µM | CNC(=O)c1cccc(Nc2ncnc(N3CC=C(c4ccc(C)c(C)c4)CC3)n2)c1 [Example 133] |
| 0.5 µM | COCCNC(=O)c1cccc(Nc2ncnc(N3CC(Oc4ccc(F)cc4)C3)n2)c1 [Example 38] |
| 13.1 µM | CNC(=O)c1cccc(Nc2ncnc(N3CCC(c4ccc(Cl)cc4)CC3)n2)c1 [Example 249] |
| 2.16 µM | CNC(=O)c1cccc(Nc2ncnc(N3CCC(C#Cc4ccccc4)CC3)n2)c1 [Example 124] |

| SMILES | IC50 |
| --- | --- |
| CNC(=O)c1cccc(Nc2nccc(N3CC(Oc4ccc(Cl)c(C)c4)C3)n2)c1 [Example 19] | 0.31 µM |
| CNC(=O)c1cccc(Nc2nccc(N3CC(Oc4ccc(F)c(F)c4)C3)n2)c1 [Example 106] | 1.6 µM |
| CNC(=O)c1cccc(Nc2nccc(N3CC(Oc4ccc(OC)cc4)C3)n2)c1 [Example 31] | 0.43 µM |

Same assay, conditions: human Nav1.7 stably expressed in 293 cells; whole-cell patch clamp; average IC50 from Hill fit

| IC50 | SMILES |
| --- | --- |
| 28.6 µM | CNC(=O)c1cccc(Nc2ncnc(N3CCC(OCc4ccc(OC(F)(F)F)cc4)CC3)n2)c1C [Example AD, N,2-dimethyl-3-((4-(4-((4-(trifluoromethoxy)benzyl)oxy)-1-piperidinyl)-1,3,5-triazin-2-yl)amino)benzamide] |
| 2 µM | CNC(=O)c1cccc(Nc2nccc(N3CC(Oc4ccc(C)cc4)C3)n2)c1 [Example B, N-methyl-3-((4-(3-(4-methylphenoxy)-1-azetidinyl)-2-pyrimidinyl)amino)benzamide] |
| > 30 µM | CNC(=O)c1cc(F)cc(Nc2ncnc(N3CC(Oc4ccc(Cl)cc4F)C3)n2)c1 [Example S, 3-(4-(3-(4-chloro-2-fluorophenoxy)azetidin-1-yl)-1,3,5-triazin-2-ylamino)-5-fluoro-N-methylbenzamide] |
| 4.5 µM | CNC(=O)c1cccc(Nc2cc(N3CC(Oc4ccc(Cl)cc4F)C3)ccn2)c1 [Example T, 3-(4-(3-(4-chloro-2-fluorophenoxy)azetidin-1-yl)pyridin-2-ylamino)-N-methylbenzamide] |
| 2.83 µM | CNC(=O)c1cccc(Nc2nccc(N3CC(Oc4ccc(F)c(Cl)c4)C3)n2)c1 [Example F, 3-((4-(3-(3-chloro-4-fluorophenoxy)-1-azetidinyl)-2-pyrimidinyl)amino)-N-methylbenzamide] |
| 5.78 µM | CNC(=O)c1cccc(Nc2ccnc(N3CC(Oc4ccc(F)cc4)C3)c2)c1 [Example V, 3-((2-(3-(4-fluorophenoxy)-1-azetidinyl)-4-pyridinyl)amino)-N-methylbenzamide] |
